# Literature values, collected in patent US20100323998A1, “TOPICAL COMPOSITION CONTAINING THE COMBINATION OF MUPIROCIN AND BECLOMETHASONE” (Glenmark Pharmaceuticals Ltd., priority 2007, published 2010).
# Tested on: Gram-positive and Gram-negative bacteria
# Details: in vitro
smiles,measurement,value
"C/C(=C\C(=O)OCCCCCCCCC(=O)O)C[C@@H]1OCC(C[C@@H]2O[C@H]2[C@@H](C)[C@H](C)O)[C@@H](O)[C@H]1O (stereo partly drawn) [Mupirocin, (E)-(2S,3R,4R,5S)-5-[(2S,3S,4S,5S)-2,3-Epoxy-5-hydroxy-4-methylhexyl]tetrahydro-3,4-dihydroxy-β-methyl-2H-pyran-2-crotonic acid, ester with 9-hydroxynonanoic acid]",Growth of Gram-positive and Gram-negative bacteria,inhibits the growth
